The numbers were not newly measured in US6288033A, “Treatment of hepatitis B infection with thymosin alpha 1 in combination with lamivudine or in combination with lamivudine and famciclovir” (priority 1998, dated 2001), which cites them from elsewhere.

Read-outs that look alike come from different tables or passages of the source. No end group written: not given here.

The subject of data set [1] is HBV.
A further data set deals with anti-HBs. To be noted: previously non-reactive hemodialysis patients, after Heptavax-B vaccination.
Data set [2] has as its system HBV. The source holds these as a separate data set.
In data set [3] the test system is woodchuck hepatitis virus (WHV).
For data set [4], the system named is HBV. To be noted: 10 day course, 250 mg or 500 mg tid.
Data set [5] has as its system HBV. The source holds these as a separate data set.
In data set [6] the test system is duck hepatitis B viral replication. To be noted: for HBV DNA and DNA polymerase levels: within two days of start, maintained during 21 days; for time viral replication remained suppressed after dosing had stopped: then levels returned to pre-treatment.
Assay in data set [7]: not given
This is another data set of the same source.

The conditions of data set [8]: up to 2 years, HIV-infected patients.
Data set [9] has as its system HBV. To be noted: duck model.
For data set [10], the system named is HBV transfected cell lines.
For data set [11], the system named is HBV. To be noted: chronically infected chimpanzees.
In data set [12] the test system is HBV. To be noted: 1 microgram/ml.
[13] abbreviates: North America and European patients.

On to “Thymosin alpha 1 (Ac-SDAAVDTSSEITTKDLKEKKEVVEEAEN; UniProt P06454 2-29, looked up) [Tα1]”, for which the serum aminotransferase levels result with HBV [1] (conclusion of the study (1 year), 12 patients received TF5 or Tα1 twice weekly for six months) is listed as “improved significantly”. Further, the “peripheral blood lymphocyte, CD3 and CD4 counts, in vitro production of interferon-gamma over initial values” with HBV [1] (in responders to therapy) is on record as “significant improvements”. Besides, the side effects result in the data set on HBV [1] (in vivo) is “No side effects were observed”. The “patients who cleared serum HBV DNA, number” value in the data set with HBV [1] (of 12 treated patients, 1 year) was “Nine”. Moreover, the “patients who cleared serum HBV DNA” value with HBV [1] (of 12 treated patients, 1 year, p<0.004 vs placebo) was 75%. Moreover, in the data set with HBV [1] (of the responders), the “responders with sustained remission (normal ALT, negative serum HBV DNA by PCR and HBeAg)” value is “About 78%”. In addition, the “safety and efficacy in clearing HBV DNA” value in the data set on HBV [1] (phase II studies, 1.45 to 1.75 mg (adults) per twice-weekly injection) was “safe and effective in clearing HBV DNA from the blood”. In addition, in the data set with anti-HBs, the “in vivo production of anti-HBs” value is on record as “enhance”. The “CR (complete response), number of patients” value with HBV [2] (1.6 mg S.C. 2×/week, 6 months, n=49) is 7 patients. In addition, the “CR (%)” value in the data set with HBV [2] (1.6 mg S.C. 2×/week, 6 months, n=49, p 0.084) was 14%. The “patients with sustained loss of HBV DNA with negative HBeAg, number” value in the data set with HBV [2] (during the 1yr study or post study follow up) is 12 patients. Besides, in the data set on HBV [2] (during the 1yr study or post study follow up, p<0.11 vs placebo), the “patients with sustained loss of HBV DNA with negative HBeAg” value was 25%. In the data set with HBV [2] (n=49), the “DR (%)” value is listed as 10%; the “DR (delayed response), number of patients” value is listed as 5 patients; the “IR (%)” value is 0%; the “IR (incomplete response), number of patients” value is 0 patients. In [3] (10 μg/Kg s.c. twice weekly, 28 weeks, 6 treated animals, end of treatment), the “treated animals with undetectable WHV DNA levels” value is reported as 4 animals. In data set [3] (liver biopsy, the 4 animals with undetectable serum WHV DNA), the “decrease in liver levels of WHV DNA replication intermediates” value is reported as 50 to 300 fold. Besides, the “change in liver levels of WHV DNA replication intermediates” value in data set [3] (liver biopsy, the other 2 animals) is “only a small change from the pretreatment levels”. Also, in data set [3] (remaining 2 treated animals, end of treatment), the “depression of WHV DNA levels” value is recorded as 100 fold.
On to `CC(=O)OCC(CCn1cnc2cnc(N)nc21)COC(C)=O` [famciclovir, diacetyl ester of 6-deoxypenciclovir], for which the “evaluable patients with a greater than 90% fall in HBV DNA levels” value with HBV [4] was 6 of 11. In the data set with HBV [5] (adverse events profile similar to placebo), the tolerability result is on record as “well tolerated”. In the data set with HBV [5] (up to 500 mg three times a day for 16 weeks, preliminary data), the “HBV DNA and ALT levels” value was “significant reduction”. Besides, the “HBV DNA and DNA polymerase levels” value in data set [6] (oral 5 and 25 mg/kg twice a day) is recorded as “undetectable levels”. For the same compound, the “time viral replication remained suppressed after dosing had stopped” value in data set [6] is “at least two days”. Moreover, for the setting “11 double-blind and 2 open trials, more than 3000 patients”, the “frequency of adverse experiences and laboratory abnormalities versus placebo” value is recorded as “similar”. Besides, for the setting “human, in vivo”, the “most common adverse experiences” value is “headache, nausea and diarrhea”. Also, the “penciclovir concentration in the blood, Cmax” value in data set [7] (after a 500 mg oral famciclovir dose) is on record as 21.73 microgram/ml. For the same compound, in [7] (single and repeat doses up to 1000 mg three times daily for six days), the “drug-related adverse effects on clinical laboratory values, blood pressure, heart rates or ECG” value is on record as “no evidence of drug-related adverse effects”. In data set [7] (volunteers, oral), the absorption result was “well absorbed”.
Regarding interferon-alpha, in the data set with hepatitis B virus (HBV) (Asian patients), the “of the HBeAg-clearing patients, clear HBsAg” value is on record as “approximately 10%” and the “patients who clear HBeAg” value was 15-20%. Moreover, in the data set on hepatitis B virus (HBV) (setting [13]), the “of the HBeAg-clearing patients, ultimately cleared HBsAg” value is 25-65% and the “sustained clearance of hepatitis B e antigen (HBeAg), patients” value is recorded as 30-40%.
For `Nc1ccn([C@@H]2CS[C@H](CO)O2)c(=O)n1` [lamivudine, 2'3'-dideoxy-3'thiacytidine], the toxicity result in data set [8] was “without significant toxicity”. The antiviral activity entry (in the data set with HBV [9]; in data set [10]; with HBV [11]) was “has been shown” in each case.
Turning to `Nc1nc2c(ncn2CCC(CO)CO)c(=O)[nH]1` [penciclovir], the “reduction in HBV DNA” value in the data set on HBV [12] (day 6) is on record as 50%; in the data set on HBV [12] (day 9), 90%. Also, the “HBV DNA and DNA polymerase levels” value in data set [6] (oral 20 and 100 mg/kg twice a day) is given as “undetectable levels”. In data set [6], the “time viral replication remained suppressed after dosing had stopped” value is reported as “at least two days”. Besides, in data set [7] (after a 5 mg/kg oral dose of penciclovir alone), the “penciclovir concentration in the blood, Cmax” value is given as “approximately 0.14 microgram/ml”.
